Results from patent EP0093915A1, “Novel beta-lactam derivatives” (GRUPPO LEPETIT S.P.A., priority 1982, dated 1983).

How the values were obtained:
Test in all cases: MIC in microtiter, antibacterial spectrum in vitro
Assay type in all cases: cell-based
S. aureus Smith = details: Brain-heart infusion broth (Difco), overnight incubation at 37°C
Method: (§1) MICS (minimum inhibitory concentrations) were determined in "microtiter" using Brain-heart infusion broth (Difco) or Penassay broth (Difco) for gram-positive or gram-negative bacteria, respectively. S. pyogenes and S. pneu- moniae were tested in Todd-Merwitt broth (Difco).
(§2) The inoculum was overnight cultures diluted to obtain 10^3 or […] respectively in the case of gram-positive or gram-negative strains.
(§3) The MIC was defined as the lowest concentration of antibiotic which […] visible growth after overnight incubation at 37 °C.

E. coli SKF 12140 = details: Penassay broth (Difco), overnight incubation at 37°C
Method: as §1, §2, §3

E. cloacae 45 = details: Penassay broth (Difco), overnight incubation at 37°C
Method: as §1, §2, §3

P. vulgaris ATCC 881 = details: Penassay broth (Difco), overnight incubation at 37°C
Method: as §1, §2, §3

S. pneumoniae UC 41 = details: Todd-Merwitt broth (Difco), overnight incubation at 37°C
Method: as §1, §2, §3

[1] = tested on: S. pyogenes c 203 SKF 13400; details: Todd-Merwitt broth (Difco), overnight incubation at 37°C
Method: as §1, §2, §3

S. aureus ATCC 6538 = details: Brain-heart infusion broth (Difco), overnight incubation at 37°C
Method: as §1, §2, §3

E cloacae P 99 1321 E = details: Penassay broth (Difco), overnight incubation at 37°C
Method: as §1, §2, §3

K. aerogenes 1522 E = details: Penassay broth (Difco), overnight incubation at 37°C
Method: as §1, §2, §3

S. pyogenes c 203 ISM = details: Todd-Merwitt broth (Difco), overnight incubation at 37°C
Method: as §1, §2, §3

Substance | MIC (S. aureus Smith) | MIC (E. coli SKF 12140) | MIC (E. cloacae 45) | MIC (P. vulgaris ATCC 881) | MIC (S. pneumoniae UC 41) | MIC [1] | MIC (S. aureus ATCC 6538) | MIC (E cloacae P 99 1321 E) | MIC (K. aerogenes 1522 E) | MIC (S. pyogenes c 203 ISM)
Trans-(±)-6-ethyl-7-oxo-2-[[2-[(2-thiazolyl)amino]-ethyl]thio]-1-azabicyclo]3.2.0]hept-2-en-2-carboxylic acid potassium salt [Example 24] | 0.4 µg/mL | 12.5 µg/mL | 6.2 µg/mL | 6.2 µg/mL | 0.1 µg/mL | 0.1 µg/mL | 0.1 µg/mL | 12.5 µg/mL | 6.2 µg/mL | 
Trans-(±)-6-ethyl-7-oxo-2-[[2-(2-pyridylamino)ethyl]-thio]-1-azabicyclo[3.2.0]hept-2-en-2-carboxylic acid S-oxide, (4-nitrophenyl)methyl ester [Example 22] |  | 25 µg/mL | 25 µg/mL | 3.12 µg/mL | 0.05 µg/mL |  | 0.1 µg/mL | 25 µg/mL | 12.5 µg/mL | 0.1 µg/mL
Trans-(±)-6-ethyl-7-oxo-2-[[2-(2-(2-pyrimidinyl)ethy]-thio]-1-azabicyclo[3.2.0]hept-2-en-2-carboxylic acid S-oxide, (4-nitrophenyl)methyl ester [Example 23] | 0.1 µg/mL | 6.2 µg/mL | 3.1 µg/mL | 3.1 µg/mL | 0.05 µg/mL | 0.05 µg/mL | 0.1 µg/mL | 3.1 µg/mL | 3.1 µg/mL | 
